One data set relates to IL-1β. The experiment in a line: THP-1 AlphaLISA IL-1β cytokine assay. It is filed as cell-based. The conditions noted are these: Homo sapiens; differentiated THP-1 cells; Table 2, compounds of formula (II). The method, boiled down:
(§1)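 THP-1 cells differentiated 72 h with PMA, pre-incubated 30 min with compounds, stimulated 24 h with LPS, then 1 h with nigericin, all at 37 °C. Supernatant cytokine measured by AlphaLISA; % inhibition normalised to ±LPS controls and IC50 taken from concentration-response curves.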

The next data set concerns IL-6. The experiment in a line: THP-1 AlphaLISA IL-6 cytokine assay. It is filed as cell-based. The following applies: Homo sapiens, THP-1, differentiated THP-1 cells; Table 2, compounds of formula (II). The method, boiled down:
as §1
In general terms: Bead proximity is the source of the signal in Alpha formats.

The subject of the next data set is NRF2. The experiment in a line: NRF2 activation assay (DiscoverX PathHunter NRF2 translocation kit, U2OS cells). Type of data set: cell-based. The method, boiled down:
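PathHunter U2OS cells, grown 24 h at 37 °C/5% CO2, treated 6 h with compound; NRF2 nuclear translocation read as enzyme-fragment-complementation chemiluminescence. Activation normalised to dimethyl fumarate high and untreated low controls; EC50 from concentration-response curve.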

A short description of data set [1]: Hepatocyte stability assay, human. Type of data set: in vitro ADME. The following applies: cryopreserved hepatocytes, 10 μM compound, Table 6, read-out: T½. An outline of the steps: (§2)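 Cryopreserved hepatocytes (viability >70%) at 0.5×10^6 cells/mL in Leibovitz buffer, preincubated 10 min at 37 °C, then compound at 10 μM (0.1% DMSO) in duplicate; buffer-only incubations as control. Samples at 0-60 min quenched in acetonitrile, analysed by LC-MS/MS; half-life and CLint (μL min^−1 10^−6 cells) from ln % remaining versus time.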

Data set [2] relates to hepatocytes. The experiment in a line: Hepatocyte stability assay, human. The following applies: 10 μM compound, Table 6. It is filed as in vitro ADME. The method, boiled down:
as §2

Data set [3] in a line: Hepatocyte stability assay, mouse. Type of data set: in vitro ADME. The conditions noted are these: mouse, cryopreserved hepatocytes, 10 μM compound, Table 6, read-out: T½. An outline of the steps: as §2
Data set [4] concerns hepatocytes. The experiment in a line: Hepatocyte stability assay, mouse. It is filed as in vitro ADME. The following applies: 10 μM compound, Table 6. The method, boiled down: as §2
Where [5] appears, read: +GSH, Table 4, compounds of formula (II).
Setting [6] is: −GSH, Table 4, compounds of formula (II).

A value given as a limit tells only on which side of the number the result lay.

The text below walks through data of patent US20240010606A1, “FUMARATE DERIVATIVES AND THEIR MEDICAL USE” (Sitryx Therapeutics Limited, priority 2020, published 2024).

What is called IC50 is the concentration that gives 50% inhibition. Low readings indicate greater potency, high ones weaker potency. The EC50 is the concentration needed to bring the measured effect to its halfway point. Low values mean a more potent agent, high ones a less potent agent.

With `O=C(O)/C=C/C(=O)OC1(c2cccc(C(F)(F)F)c2)CCC1` [Intermediate 10, (E)-4-oxo-4-(1-(3-(trifluoromethyl)phenyl)cyclobutoxy)but-2-enoic acid], the IC50 in the data set with IL-1β and in the data set on IL-6 was 6 to 30 µM each time. In addition, the EC50 with NRF2 (setting [5]) and with NRF2 (setting [6]) was less than 23 µM each time. Further, the “NRF2 activation Emax” value in the data set with NRF2 (setting [5]) and in the data set on NRF2 (setting [6]) was “+++ (+++ means >114-150%)” throughout. Also, the half-life at 10 μM in data set [1] is 0.0833 to 0.483 h; in data set [3] it was 0.5 to 1.67 h. For the same molecule, the CIint result in the data set with hepatocytes [2] and in the data set on hepatocytes [4] was “++ (++ means >30-110)” in each case.

Regarding `O=C(O)/C=C/C(=O)OC1(c2ccc(Br)cc2)CCC1` [Intermediate 12, (E)-4-(1-(4-bromophenyl)cyclobutoxy)-4-oxobut-2-enoic acid], the IC50 with IL-1β and with IL-6 was 6 to 30 µM in each case. In addition, the EC50 with NRF2 (setting [5]) and in the data set on NRF2 (setting [6]) was less than 23 µM in each case. For the same molecule, the “NRF2 activation Emax” value with NRF2 (setting [5]) and in the data set with NRF2 (setting [6]) was “++ (++ means >87-114%)” throughout. For the same molecule, the half-life at 10 μM in data set [1] and in data set [3] was 0.5 to 1.67 h each time. The CIint result in the data set with hepatocytes [2] and with hepatocytes [4] was “+++ (+++ means >15-30)” in each case.

In the case of `O=C(O)/C=C/C(=O)OC1(c2cc(Cl)cc(Cl)c2)CCC1` [Intermediate 14, (E)-4-(1-(3,5-dichlorophenyl)cyclobutoxy)-4-oxobut-2-enoic acid], the IC50 in the data set with IL-1β is 6 to 30 µM; with IL-6, less than 6 µM. For the same molecule, the EC50 with NRF2 (setting [5]) and in the data set with NRF2 (setting [6]) was less than 23 µM throughout. Further, the “NRF2 activation Emax” value with NRF2 (setting [5]) and with NRF2 (setting [6]) was “++++ (++++ means >150%)” throughout. Moreover, the half-life at 10 μM is greater than 1.67 h in data set [1] and 0.0833 to 0.483 h in data set [3]. The CIint result in the data set with hepatocytes [2] was “++++ (++++ means 5-15)”; in the data set on hepatocytes [4] it was “++ (++ means >30-110)”.

`O=C(O)/C=C/C(=O)OC1(c2ccc(C(F)(F)F)c(F)c2)CCC1` [Intermediate 16, (E)-4-(1-(3-fluoro-4-(trifluoromethyl)phenyl)cyclobutoxy)-4-oxobut-2-enoic acid]: the IC50 in the data set with IL-1β and in the data set on IL-6 was less than 6 µM each time. Also, the EC50 in the data set with NRF2 (setting [5]) and with NRF2 (setting [6]) was less than 23 µM throughout. Further, the “NRF2 activation Emax” value is given as “+++ (+++ means >114-150%)” with NRF2 (setting [5]) and “++++ (++++ means >150%)” in the data set on NRF2 (setting [6]). The half-life at 10 μM was greater than 1.67 h in data set [1] and 0.5 to 1.67 h in data set [3]. The CIint entry in the data set on hepatocytes [2] and in the data set with hepatocytes [4] was “+++ (+++ means >15-30)” in each case.

In the case of `C[C@H](OC(=O)/C=C/C(=O)O)c1ccc(C(F)(F)F)cc1` [Intermediate 19, (S,E)-4-oxo-4-(1-(4-(trifluoromethyl)phenyl)ethoxy)but-2-enoic acid], the IC50 with IL-1β and in the data set on IL-6 was 6 to 30 µM throughout. Besides, the EC50 with NRF2 (setting [5]) and with NRF2 (setting [6]) was less than 23 µM in each case. The figures for the “NRF2 activation Emax” value in the data set with NRF2 (setting [5]) and with NRF2 (setting [6]) were “+++ (+++ means >114-150%)” and “++++ (++++ means >150%)”, respectively. The half-life at 10 μM in data set [1] was greater than 1.67 h; in data set [3] it was 0.0833 to 0.483 h. In addition, the CIint entry in the data set on hepatocytes [2] is “++++ (++++ means 5-15)”; in the data set on hepatocytes [4], “++ (++ means >30-110)”.

Turning to `C[C@@H](OC(=O)/C=C/C(=O)O)c1ccc(C(F)(F)F)cc1` [Intermediate 20, (R,E)-4-oxo-4-(1-(4-(trifluoromethyl)phenyl)ethoxy)but-2-enoic acid], the half-maximal inhibitory concentration (IC50) in the data set with IL-1β and with IL-6 was 6 to 30 µM throughout. In addition, the EC50 with NRF2 (setting [5]) is 23 to 48.4 µM; in the data set with NRF2 (setting [6]) it was less than 23 µM. Besides, the figures for the “NRF2 activation Emax” value in the data set with NRF2 (setting [5]) and in the data set on NRF2 (setting [6]) were “+ (+ means >50-<87%)” and “+++ (+++ means >114-150%)”, respectively. Besides, the half-life at 10 μM in data set [1] is greater than 1.67 h; in data set [3], 0.5 to 1.67 h. The CIint result with hepatocytes [2] is on record as “++++ (++++ means 5-15)”; with hepatocytes [4] it was “+++ (+++ means >15-30)”.

In the case of `CC(C)(OC(=O)/C=C/C(=O)O)c1ccc(C(F)(F)F)cc1` [Intermediate 21, (E)-4-oxo-4-((2-(4-(trifluoromethyl)phenyl)propan-2-yl)oxy)but-2-enoic acid], the IC50 with IL-1β is 6 to 30 µM; in the data set on IL-6, greater than 100 µM. In addition, the EC50 in the data set with NRF2 (setting [5]) was less than 23 µM; in the data set with NRF2 (+GSH, from repeated experiments, Table 4), 23 to 48.4 µM; with NRF2 (setting [6]), less than 23 µM. Also, the “NRF2 activation Emax” value with NRF2 (setting [5]) was “++ (++ means >87-114%)”; in the data set with NRF2 (setting [6]), “+++ (+++ means >114-150%)”. The half-life at 10 μM in data set [1] and in data set [3] was greater than 1.67 h throughout. Moreover, the CIint result in the data set on hepatocytes [2] and with hepatocytes [4] was “++++ (++++ means 5-15)” throughout.

`O=C(O)/C=C/C(=O)OC1(c2cc(Cl)c(F)c(Cl)c2)CCC1` [Intermediate 25, (E)-4-(1-(3,5-dichloro-4-fluorophenyl)cyclobutoxy)-4-oxobut-2-enoic acid]: the 50% inhibitory concentration (IC50) in the data set on IL-1β is 6 to 30 µM; with IL-6, less than 6 µM. Moreover, the EC50 in the data set on NRF2 (setting [5]) and in the data set with NRF2 (setting [6]) was less than 23 µM each time. Besides, the results for the “NRF2 activation Emax” value with NRF2 (setting [5]) and in the data set with NRF2 (setting [6]) were “++ (++ means >87-114%)” and “++++ (++++ means >150%)”, respectively. In addition, the half-life at 10 μM in data set [1] is greater than 1.67 h; in data set [3], 0.5 to 1.67 h. Moreover, the results for the CIint entry in the data set with hepatocytes [2] and in the data set on hepatocytes [4] were “+++ (+++ means >15-30)” and “++ (++ means >30-110)”, respectively.

Turning to `O=C(O)/C=C/C(=O)OC1(c2ccc(C(F)(F)F)c(Cl)c2)CCC1` [Intermediate 26, (E)-4-(1-(3-chloro-4-(trifluoromethyl)phenyl)cyclobutoxy)-4-oxobut-2-enoic acid], the IC50 in the data set with IL-1β and with IL-6 was less than 6 µM in each case. The concentration for a half-maximal effect (EC50) in the data set with NRF2 (setting [5]) and in the data set with NRF2 (setting [6]) was less than 23 µM in each case. In addition, the “NRF2 activation Emax” value is recorded as “++ (++ means >87-114%)” with NRF2 (setting [5]) and “+++ (+++ means >114-150%)” in the data set with NRF2 (setting [6]). Besides, the half-life at 10 μM in data set [1] and in data set [3] was 0.5 to 1.67 h each time. The CIint result in the data set with hepatocytes [2] is reported as “+++ (+++ means >15-30)”; in the data set on hepatocytes [4] it was “++ (++ means >30-110)”.

For `O=C(O)/C=C/C(=O)OC1(c2ccc(OC(F)(F)F)cc2)CCC1` [Intermediate 30, (E)-4-oxo-4-(1-(4-(trifluoromethoxy)phenyl)cyclobutoxy)but-2-enoic acid], the IC50 in the data set with IL-1β was less than 6 µM; in the data set with IL-6, 6 to 30 µM. In addition, the EC50 in the data set with NRF2 (setting [5]) was 23 to 48.4 µM; with NRF2 (setting [6]), less than 23 µM. Further, the figures for the “NRF2 activation Emax” value in the data set on NRF2 (setting [5]) and in the data set on NRF2 (setting [6]) were “++ (++ means >87-114%)” and “+++ (+++ means >114-150%)”, respectively. The half-life at 10 μM in data set [1] is greater than 1.67 h; in data set [3], 0.5 to 1.67 h. For the same molecule, the CIint result is listed as “++++ (++++ means 5-15)” in the data set with hepatocytes [2] and “+++ (+++ means >15-30)” with hepatocytes [4].

As for `O=C(O)/C=C/C(=O)OC1(c2ccc(C(F)(F)F)cc2)CC1` [Intermediate 38, (E)-4-oxo-4-(1-(4-(trifluoromethyl)phenyl)cyclopropoxy)but-2-enoic acid], the results for the IC50 with IL-1β and with IL-6 were less than 6 µM and 6 to 30 µM, respectively. For the same molecule, the EC50 in the data set with NRF2 (setting [5]) and with NRF2 (setting [6]) was less than 23 µM in each case. For the same molecule, the figures for the “NRF2 activation Emax” value in the data set on NRF2 (setting [5]) and in the data set with NRF2 (setting [6]) were “+ (+ means >50-<87%)” and “++++ (++++ means >150%)”, respectively. Moreover, the half-life at 10 μM in data set [1] fell in the range of 0.5 to 1.67 h; in data set [3], 0.0833 to 0.483 h. Besides, the results for the CIint entry with hepatocytes [2] and with hepatocytes [4] were “+++ (+++ means >15-30)” and “++ (++ means >30-110)”, respectively.
